Laboratory results taken from patent US20140107100A1, “Benzoxazepines as Inhibitors of PI3K/mTOR and Methods of Their Use and Manufacture” (EXELIXIS, INC., priority 2010, published 2014).

Biological target: mTOR/GbL/Raptor (mTORC1) (Homo sapiens, UniProt P42345)
Test: mTOR/GbL/Raptor (mTORC1) ELISA assay, phosphorylation of 4E-BP1
Type: biochemical
Details: 0.2 nM mTORC1, 40 uM ATP, 50 nM NHis-tagged 4E-BP1, 120 minutes; read-out: IC50 in this assay (mTORC1 ELISA)
Procedure, shortened: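 Phospho-4E-BP1 was quantified by luminescent ELISA (anti-phospho-4E-BP1 IgG, HRP-tagged secondary) after capture of the His-tagged substrate on Ni-chelate plates.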

| SMILES | IC50 [nM] |
| --- | --- |
| Cc1cc(-c2cnc3sc(N)nc3c2)cc2c1OCCN(c1nc(C3CNC3)nc(C)c1C(C)C)C2 [Compound 133, 6-{4-[2-azetidin-3-yl-6-methyl-5-(1-methylethyl)pyrimidin-4-yl]-9-methyl-2,3,4,5-tetrahydro-1,4-benzoxazepin-7-yl}[1,3]thiazolo[5,4-b]pyridin-2-amine] | ≤ 100 |
| Cc1cc(-c2cnc3sc(N)nc3c2)cc2c1OCCN(c1nc(CC#N)nc(C)c1C(C)C)C2 [Compound 105, {4-[7-(2-amino[1,3]thiazolo[5,4-b]pyridin-6-yl)-9-methyl-2,3-dihydro-1,4-benzoxazepin-4(5H)-yl]-6-methyl-5-(1-methylethyl)pyrimidin-2-yl}acetonitrile] | ≤ 100 |
| CCc1c(C)nc(CN(C)C)nc1N1CCOc2c(C)cc(-c3cnc4sc(N)nc4c3)cc2C1 [Compound 67, 6-(4-{2-[(dimethylamino)methyl]-5-ethyl-6-methylpyrimidin-4-yl}-9-methyl-2,3,4,5-tetrahydro-1,4-benzoxazepin-7-yl)[1,3]thiazolo[5,4-b]pyridin-2-amine] | ≤ 100 |
| Cc1ncc(C)c(N2CCOc3c(C)cc(-c4nnc(N)s4)cc3C2)n1 [Compound 174, 5-[4-(2,5-dimethylpyrimidin-4-yl)-9-methyl-2,3,4,5-tetrahydro-1,4-benzoxazepin-7-yl]-1,3,4-thiadiazol-2-amine] | ≤ 100 |
| CCc1nc(CN(C)C)nc(N2CCOc3c(C)cc(-c4cnc5sc(N)nc5c4)cc3C2)c1CC [Compound 85, 6-(4-{2-[(dimethylamino)methyl]-5,6-diethylpyrimidin-4-yl}-9-methyl-2,3,4,5-tetrahydro-1,4-benzoxazepin-7-yl)[1,3]thiazolo[5,4-b]pyridin-2-amine] | ≤ 100 |
| Cc1cc(-c2nnc(N)s2)cc2c1OCCN(c1nc(CNCC(F)F)nc(C)c1C(C)C)C2 [Compound 169, 5-{4-[2-{[(2,2-difluoroethyl)amino]methyl}-6-methyl-5-(1-methylethyl)pyrimidin-4-yl]-9-methyl-2,3,4,5-tetrahydro-1,4-benzoxazepin-7-yl}-1,3,4-thiadiazol-2-amine] | ≤ 100 |
| Cc1cc(-c2cnc(Cl)c(NS(C)(=O)=O)c2)cc2c1OCCN(c1nc(CNCC(F)F)nc(C)c1C(C)C)C2 [Compound 164, N-(2-chloro-5-{4-[2-{[(2,2-difluoroethyl)amino]methyl}-6-methyl-5-(1-methylethyl)pyrimidin-4-yl]-9-methyl-2,3,4,5-tetrahydro-1,4-benzoxazepin-7-yl}pyridin-3-yl)methanesulfonamide] | ≤ 100 |
| C=Cc1c(C)ncnc1N1CCOc2c(C)cc(-c3cnc4sc(N)nc4c3)cc2C1 [Compound 115, 6-[4-(5-ethenyl-6-methylpyrimidin-4-yl)-9-methyl-2,3,4,5-tetrahydro-1,4-benzoxazepin-7-yl][1,3]thiazolo[5,4-b]pyridin-2-amine] | ≤ 100 |
| Cc1ncc(C(C)C)c(N2CCOc3c(C)cc(-c4nnc(N)s4)cc3C2)n1 [Compound 175, 5-{9-methyl-4-[2-methyl-5-(1-methylethyl)pyrimidin-4-yl]-2,3,4,5-tetrahydro-1,4-benzoxazepin-7-yl}-1,3,4-thiadiazol-2-amine] | ≤ 100 |
| Cc1cc(-c2cccc(C(N)=O)c2)cc2c1OCCN(c1nc(N)nc(C)c1C(C)C)C2 [Compound 77, 3-{4-[2-amino-6-methyl-5-(1-methylethyl)pyrimidin-4-yl]-9-methyl-2,3,4,5-tetrahydro-1,4-benzoxazepin-7-yl}benzamide] | 100 to 500 |
| Cc1cc(-c2cnc(Cl)c(NS(C)(=O)=O)c2)cc2c1OCCN(c1nc(CNCCF)nc(C)c1C(C)C)C2 [Compound 161, N-(2-chloro-5-{4-[2-{[(2-fluoroethyl)amino]methyl}-6-methyl-5-(1-methylethyl)pyrimidin-4-yl]-9-methyl-2,3,4,5-tetrahydro-1,4-benzoxazepin-7-yl}pyridin-3-yl)methanesulfonamide] | ≤ 100 |
| Cc1cc(-c2cnc(Cl)c(NS(C)(=O)=O)c2)cc2c1OCCN(c1nc(N)nc(C)c1C(C)C)C2 [Compound 6, N-(5-{4-[2-amino-6-methyl-5-(1-methylethyl)pyrimidin-4-yl]-9-methyl-2,3,4,5-tetrahydro-1,4-benzoxazepin-7-yl}-2-chloropyridin-3-yl)methanesulfonamide] | ≤ 100 |
| Cc1cc(-c2cnc3sc(N)nc3c2)cc2c1OCCN(c1ncnc(Cl)c1C(C)C)C2 [Compound 108, 6-{4-[6-chloro-5-(1-methylethyl)pyrimidin-4-yl]-9-methyl-2,3,4,5-tetrahydro-1,4-benzoxazepin-7-yl}[1,3]thiazolo[5,4-b]pyridin-2-amine] | ≤ 100 |
| Cc1cc(-c2cnc(Cl)c(NS(C)(=O)=O)c2)cc2c1OCCN(c1nc(N)ncc1C(F)(F)F)C2 [Compound 14, N-(5-{4-[2-amino-5-(trifluoromethyl)pyrimidin-4-yl]-9-methyl-2,3,4,5-tetrahydro-1,4-benzoxazepin-7-yl}-2-chloropyridin-3-yl)methanesulfonamide] | ≤ 100 |
| COCc1nc(C)c(C(C)C)c(N2CCOc3c(C)cc(-c4cnc5sc(N)nc5c4)cc3C2)n1 [Compound 93, 6-(9-methyl-4-{6-methyl-5-(1-methylethyl)-2-[(methyloxy)methyl]pyrimidin-4-yl}-2,3,4,5-tetrahydro-1,4-benzoxazepin-7-yl)[1,3]thiazolo[5,4-b]pyridin-2-amine] | ≤ 100 |
| CNc1nc(C)c(C(C)C)c(N2CCOc3c(C)cc(-c4cnc5sc(N)nc5c4)cc3C2)n1 [Compound 53, 6-{9-methyl-4-[6-methyl-2-(methylamino)-5-(1-methylethyl)pyrimidin-4-yl]-2,3,4,5-tetrahydro-1,4-benzoxazepin-7-yl}[1,3]thiazolo[5,4-b]pyridin-2-amine] | ≤ 100 |
| CCc1cnc(CN(C)C)nc1N1CCOc2c(C)cc(-c3cnc4sc(N)nc4c3)cc2C1 [Compound 66, 6-(4-{2-[(dimethylamino)methyl]-5-ethylpyrimidin-4-yl}-9-methyl-2,3,4,5-tetrahydro-1,4-benzoxazepin-7-yl)[1,3]thiazolo[5,4-b]pyridin-2-amine] | ≤ 100 |
| CC#CCc1c(C)nc(C)nc1N1CCOc2c(C)cc(-c3cnc4sc(N)nc4c3)cc2C1 [Compound 141, 6-[4-(5-but-2-yn-1-yl-2,6-dimethylpyrimidin-4-yl)-9-methyl-2,3,4,5-tetrahydro-1,4-benzoxazepin-7-yl][1,3]thiazolo[5,4-b]pyridin-2-amine] | ≤ 100 |
| Cc1cnc(N)nc1N1CCOc2c(C)cc(-c3nnc(N)s3)cc2C1 [Compound 178, 4-[7-(5-amino-1,3,4-thiadiazol-2-yl)-9-methyl-2,3-dihydro-1,4-benzoxazepin-4(5H)-yl]-5-methylpyrimidin-2-amine] | ≤ 100 |
| Cc1cc(-c2cnc3sc(N)nc3c2)cc2c1OCCN(c1nccnc1C#N)C2 [Compound 34, 3-[7-(2-amino[1,3]thiazolo[5,4-b]pyridin-6-yl)-9-methyl-2,3-dihydro-1,4-benzoxazepin-4(5H)-yl]pyrazine-2-carbonitrile] | ≤ 100 |
| CCNCc1nc(C)c(C(C)C)c(N2CCOc3c(C)cc(-c4cnc5sc(N)nc5c4)cc3C2)n1 [Compound 158, 6-(4-{2-[(ethylamino)methyl]-6-methyl-5-(1-methylethyl)pyrimidin-4-yl}-9-methyl-2,3,4,5-tetrahydro-1,4-benzoxazepin-7-yl)[1,3]thiazolo[5,4-b]pyridin-2-amine] | ≤ 100 |
| Cc1cc(-c2cnc3sc(N)nc3c2)cc2c1OCCN(c1nc(C(F)(F)F)nc(C)c1C(C)C)C2 [Compound 128, 6-{9-methyl-4-[6-methyl-5-(1-methylethyl)-2-(trifluoromethyl)pyrimidin-4-yl]-2,3,4,5-tetrahydro-1,4-benzoxazepin-7-yl}[1,3]thiazolo[5,4-b]pyridin-2-amine] | ≤ 100 |
| Cc1cc(-c2cnc3sc(N)nc3c2)cc2c1OCCN(c1nc(N)ncc1C(F)(F)F)C2 [Compound 12, 6-{4-[2-amino-5-(trifluoromethyl)pyrimidin-4-yl]-9-methyl-2,3,4,5-tetrahydro-1,4-benzoxazepin-7-yl}[1,3]thiazolo[5,4-b]pyridin-2-amine] | ≤ 100 |
| Cc1nc(C)c(C(C)C)c(N2CCOc3c(C)cc(-c4nnc(N)s4)cc3C2)n1 [Compound 172, 5-{4-[2,6-dimethyl-5-(1-methylethyl)pyrimidin-4-yl]-9-methyl-2,3,4,5-tetrahydro-1,4-benzoxazepin-7-yl}-1,3,4-thiadiazol-2-amine] | ≤ 100 |
| CSc1nc(Cl)c(C(C)(C)O)c(N2CCOc3c(C)cc(-c4cnc5sc(N)nc5c4)cc3C2)n1 [Compound 114, 2-{4-[7-(2-amino[1,3]thiazolo[5,4-b]pyridin-6-yl)-9-methyl-2,3-dihydro-1,4-benzoxazepin-4(5H)-yl]-6-chloro-2-(methylthio)pyrimidin-5-yl}propan-2-ol] | 100 to 500 |
| COCc1c(C)nc(C)nc1N1CCOc2c(C)cc(-c3cnc4sc(N)nc4c3)cc2C1 [Compound 143, 6-(4-{2,6-dimethyl-5-[(methyloxy)methyl]pyrimidin-4-yl}-9-methyl-2,3,4,5-tetrahydro-1,4-benzoxazepin-7-yl)[1,3]thiazolo[5,4-b]pyridin-2-amine] | ≤ 100 |
| COc1cc(-c2cnc3sc(N)nc3c2)cc2c1OCCN(c1nc(CN(C)C)nc(C)c1C(C)C)C2 [Compound 157, 6-[4-{2-[(dimethylamino)methyl]-6-methyl-5-(1-methylethyl)pyrimidin-4-yl}-9-(methyloxy)-2,3,4,5-tetrahydro-1,4-benzoxazepin-7-yl][1,3]thiazolo[5,4-b]pyridin-2-amine] | 100 to 500 |
| Cc1cc(-c2cnc3sc(N)nc3c2)cc2c1OCCN(c1nc(N)c(C#N)cc1C#N)C2 [Compound 32, 2-amino-6-[7-(2-amino[1,3]thiazolo[5,4-b]pyridin-6-yl)-9-methyl-2,3-dihydro-1,4-benzoxazepin-4(5H)-yl]pyridine-3,5-dicarbonitrile] | ≤ 100 |
